The record followed here is publication PMC8621101, “Inhibition of XPO-1 Mediated Nuclear Export through the Michael-Acceptor Character of Chalcones” (Pharmaceuticals, 2021).

Structures are written as SMILES. Where “and” joins values, the source holds several entries; their conditions need not be identical. Identical values can stand only once.

One data set has as its system K-562 cells. The data set is described as follows: Cell proliferation assay (IncuCyte confluence), K-562. Conditions: Homo sapiens, K562; K-562 chronic myeloid leukemia; 72 h; mean of two independent experiments ± SEM; read-out: IC50 antiproliferative activity K-562. It counts as cell-based. The method, then:
(§1) Cancer cell lines HCT-116, NCI-H460, HL-60, K-562 and Z-138 were acquired from the American Type Culture Collection (ATCC, Manassas, VA, USA). The DND-41 cell line was purchased from the Deutsche Sammlung von Mikroorganismen und Zellkulturen (DSMZ Leibniz-Institut, Brunswick, Germany), and the HAP-1 cell line was ordered from Horizon Discovery (Horizon Discovery Group, Water Beach, UK). All cell lines were cultured as recommended by the suppliers. Culture media were purchased from Gibco Life Technologies and supplemented with 10% fetal bovine serum (HyClone, GE Healthcare Life Sciences, Chicago, Illinois, USA).
(§2) Adherent cell lines HCT-116, NCI-H460 and Hap-1 cells were seeded at a density between 500 and 1500 cells per well in 384-well tissue culture plates (Greiner). After overnight incubation, cells were treated with different concentrations of the test compounds. Suspension cell lines HL-60, K-562, Z-138 and DND-41 were seeded at densities ranging from 2500 to 5500 cells per well in 384-well culture plates containing the test compounds at the same concentration points.

The next data set has as its target T1, XPO1 (Jurkat XPO1^WT) (Homo sapiens, UniProt O14980).
T1 construct: RanBP1 immunofluorescence staining was performed on both wild type and mutant XPO1^C528S Jurkat cells; endogenous in cells; host or cells: wild-type Jurkat leukemia cells
The data set is described as follows: RanBP1 immunofluorescence (XPO1-mediated nuclear export) in wild-type Jurkat cells. The class given is cell-based. Conditions: 3 h; for Subcellular localization of RanBP1, wild-type Jurkat: compound at 4 μM; for IC50: nuclear export of RanBP1 cargo, wild-type Jurkat, mean ± SD of two independent experiments, read-out: IC50 XPO1 inhibition Jurkat XPO1^WT. Here is the method: The effect of the mutation on the activity of the inhibitors was assessed by the visualization of the subcellular localization of the XPO1 cargo RanBP1.
(§3) Stably transfected HeLa NLSSV40-AcGFP-NESPKI were cultured as described in Vercruysse et al.
Cells were harvested at 400× g, washed in PBS and then transferred into an 8-well µ-Slide (Ibidi) pretreated with 0.1% (w/v) poly-L-lysine (Sigma). Cells were allowed to adhere to the slides and then subsequently fixed (4% PFA in PBS), washed and permeabilized (0.2% Triton X-100 in PBS). Further immunofluorescence staining was then performed according to standard procedures. Employed antibodies were rabbit anti-RanBP1 (ab97659, Abcam, Cambridge, UK) at a 1:500 dilution and secondary Alexa Fluor 488 goat anti-rabbit antibody (A11008, Invitrogen, ThermoFisher Scientific). Cell nuclei were counterstained with DAPI, and the samples were imaged by confocal microscopy on a Leica TCS SP5 confocal microscope (Leica Microsystems, Weitzlar, Germany), employing a HCX PL APO 63× (NA 1.2) water immersion objective. Subsequently, fluorescence was read on an ArrayScan XTI High Content Reader (Thermo Fisher Scientific, Waltham, MA, USA). Nuclear and cytoplasmic compartments were segmented, and their average pixel intensities in the green channel were quantitated similarly as for the XPO1 phenotypic reporter assay.

Another data set concerns HCT-116 cells. The data set is described as follows: Cell proliferation assay (IncuCyte confluence), HCT-116. As to conditions: Homo sapiens; HCT-116 colorectal carcinoma; 72 h; mean of two independent experiments ± SEM; read-out: IC50 antiproliferative activity HCT-116. The class given is cell-based. The method, then:
as §1, §2

A further data set deals with T2, XPO1 (Homo sapiens, UniProt O14980).
T2 construct: the compounds were assayed in a reporter cell line based on the subcellular localization of a XPO1-dependent GFP reporter cargo protein; endogenous in cells; host or cells: HeLa cells stably transfected with the NLSSV40-AcGFP-NESPKI reporter (only the reporter cargo is transfected, not XPO1)
T2 sequence (O14980 whole entry): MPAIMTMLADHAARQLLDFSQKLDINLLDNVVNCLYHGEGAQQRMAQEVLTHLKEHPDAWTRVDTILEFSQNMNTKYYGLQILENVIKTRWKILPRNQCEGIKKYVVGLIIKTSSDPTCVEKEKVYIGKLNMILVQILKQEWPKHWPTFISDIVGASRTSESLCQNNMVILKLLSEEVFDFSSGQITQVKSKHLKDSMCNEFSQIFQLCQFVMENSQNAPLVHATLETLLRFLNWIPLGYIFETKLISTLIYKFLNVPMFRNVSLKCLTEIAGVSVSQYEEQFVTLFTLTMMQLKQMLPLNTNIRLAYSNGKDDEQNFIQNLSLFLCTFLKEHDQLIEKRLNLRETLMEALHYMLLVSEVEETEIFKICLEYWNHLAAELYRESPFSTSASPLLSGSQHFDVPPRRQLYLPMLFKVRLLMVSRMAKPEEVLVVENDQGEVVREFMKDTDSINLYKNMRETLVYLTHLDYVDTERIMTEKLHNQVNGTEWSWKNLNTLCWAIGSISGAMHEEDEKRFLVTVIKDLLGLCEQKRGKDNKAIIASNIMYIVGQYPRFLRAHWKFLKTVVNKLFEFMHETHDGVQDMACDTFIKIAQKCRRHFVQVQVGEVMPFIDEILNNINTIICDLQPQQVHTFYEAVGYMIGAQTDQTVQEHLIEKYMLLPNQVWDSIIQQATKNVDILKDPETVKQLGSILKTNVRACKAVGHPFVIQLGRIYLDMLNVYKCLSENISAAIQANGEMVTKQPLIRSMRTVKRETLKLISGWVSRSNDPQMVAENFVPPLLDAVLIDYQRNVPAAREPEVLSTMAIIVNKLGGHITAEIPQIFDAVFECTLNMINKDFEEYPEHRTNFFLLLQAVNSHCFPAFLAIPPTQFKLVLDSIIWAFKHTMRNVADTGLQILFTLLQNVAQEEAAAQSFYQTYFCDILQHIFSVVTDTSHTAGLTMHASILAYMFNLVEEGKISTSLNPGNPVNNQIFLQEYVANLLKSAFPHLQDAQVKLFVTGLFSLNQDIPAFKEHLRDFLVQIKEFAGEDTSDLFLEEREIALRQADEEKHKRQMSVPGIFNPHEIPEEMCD
The data set can be described thus: XPO1 phenotypic reporter assay in HeLa NLSSV40-AcGFP-NESPKI cells. It counts as cell-based. As to conditions: HeLa GFP reporter cell line; 2 h treatment; mean ± SEM of two independent experiments; read-out: XPO1 inhibition IC50. Here is the method: as §3
To study the XPO1-mediated nuclear export, stably transfected HeLa NLSSV40-AcGFP-NESPKI reporter cells were seeded at 8000 cells per well in 96-well all clear tissue culture plates (TPP). After overnight incubation, cells were treated with different doses of compound or solvent (DMSO) for 2 h and then fixed and counterstained with DAPI. Fluorescence was read on an ArrayScan XTI High Content Reader (Thermo Fisher Scientific, Waltham, MA, USA). Nuclear and cytoplasmic compartments were segmented and their average pixel intensities in the green channel were quantitated employing the HCS Studio software. Genedata Screener software was used for dose-response curve fitting, and calculation of EC50 values was based on the percentage of cells having a predominant nuclear localisation (ratio of nuclear to cytoplasmic signal equal or above 1.4) of the reporter construct. Compounds were tested in two independent experiments and represented as mean ± SEM.
(In a reporter assay the amount or activity of a reporter protein is the signal.)

A further data set concerns Hap-1 cells. The data set is described as follows: Cell proliferation assay (IncuCyte confluence), Hap-1. As to conditions: Homo sapiens, HAP1; Hap-1 chronic myeloid leukemia; 72 h; mean of two independent experiments ± SEM; read-out: IC50 antiproliferative activity Hap-1. The class given is cell-based. The method, then:
as §1, §2

The test system of the next data set is HL-60 cells. The data set is described as follows: Cell proliferation assay (IncuCyte confluence), HL-60. It counts as cell-based. As to conditions: Homo sapiens; HL-60 acute myeloid leukemia; 72 h; mean of two independent experiments ± SEM; read-out: IC50 antiproliferative activity HL-60. Here is the method:
as §1, §2

Another data set concerns DND-41 cells. The data set can be described thus: Cell proliferation assay (IncuCyte confluence), DND-41. It counts as cell-based. As to conditions: DND41; DND-41 acute lymphoblastic leukemia; 72 h; mean of two independent experiments ± SEM; read-out: IC50 antiproliferative activity DND-41. The method, then:
as §1, §2

Another data set has as its system NCI-H460 cells. The data set can be described thus: Cell proliferation assay (IncuCyte confluence), NCI-H460. As to conditions: Homo sapiens; NCI-H460 lung carcinoma; 72 h; mean of two independent experiments ± SEM; read-out: IC50 antiproliferative activity NCI-H460. It counts as cell-based. The method, then:
as §1, §2

Another data set concerns Z-138 cells. The data set can be described thus: Cell proliferation assay (IncuCyte confluence), Z-138. The class given is cell-based. As to conditions: Homo sapiens; Z-138 non-Hodgkin lymphoma; 72 h; mean of two independent experiments ± SEM; read-out: IC50 antiproliferative activity Z-138. The method, then: as §1, §2

`O=C(/C=C/c1cncnc1)c1ccc2ccccc2c1` [Compound 9, (E)-1-(Naphthalen-2-yl)-3-(pyrimidin-5-yl)prop-2-en-1-one] gave a melting point of 175 to 177 °C. The IC50 in the data set on K-562 cells was found to be 1800 ± 80 nM. Besides, at XPO1 (Jurkat XPO1^WT), the “Subcellular localization of RanBP1, wild-type Jurkat” value is on record as “RanBP1 accumulated in the nucleus” and the IC50 was found to be 2200 ± 30 nM. The IC50 with HCT-116 cells is 2400 ± 200 nM. For the same molecule, the IC50 on XPO1 was 2500 nM and 2460 nM. Besides, the IC50 with Hap-1 cells stood at 2300 ± 200 nM. The concentration for half-maximal inhibition (IC50) with HL-60 cells stood at 2000 ± 500 nM. The IC50 with DND-41 cells was 2100 ± 500 nM. Moreover, the IC50 in the data set with NCI-H460 cells was determined as 2100 ± 100 nM. Moreover, in the data set on Z-138 cells, the IC50 was 1800 ± 50 nM.
Consider `COc1cc(OC)cc(C(=O)/C=C/c2cncnc2)c1` [Compound 10, (E)-1-(3′,5′-Dimethoxyphenyl)-3-(pyrimidin-5′’-yl)prop-2-en-1-one], for which the melting point lay within 184 to 185 °C. Besides, the IC50 with K-562 cells worked out at 7200 ± 1900 nM. At XPO1 (Jurkat XPO1^WT), the “Subcellular localization of RanBP1, wild-type Jurkat” value is given as “RanBP1 accumulated in the nucleus” and the half-inhibitory concentration (IC50) is 300 ± 300 nM. In the data set with HCT-116 cells, the IC50 worked out at 4700 ± 1700 nM. Moreover, at XPO1, the IC50 was determined as 550 ± 190 nM. For the same molecule, the IC50 with Hap-1 cells came out at 2100 ± 200 nM. The IC50 with HL-60 cells is 2200 ± 300 nM. Also, the IC50 in the data set on DND-41 cells was 1500 ± 200 nM. Moreover, the 50% inhibitory concentration (IC50) in the data set with NCI-H460 cells worked out at 3500 ± 1500 nM. For the same molecule, the IC50 in the data set with Z-138 cells came to 500 ± 50 nM.

The IC50 is the concentration needed to halve the response being measured. One may read the melting point as the temperature of the solid-liquid transition.
